The values below come from patent US10857105B2, “Compounds and compositions for intracellular delivery of therapeutic agents” (ModernaTX, Inc., priority 2017, dated 2020).

For one data set, the system named is modified luciferase. Briefly: Luciferase expression in liver, lung, spleen and femur 6 hours after intravenous administration to mice. It counts as in vivo. The note with it: 6 hours after intravenous 0.5 mpk, mice. Here is the method:
The efficacy of the nanoparticle compositions presented in Table 1A was further evaluated by measuring the expression of modified luciferase in the liver, lung, spleen, and femur upon administration of a given composition. Formulations were administered intravenously to mice (n=3) at a dosage of 0.5 mpk and bioluminescence measured after 6 hours. The standard MC3 formulation and a PBS control were also tested. […] Flux in the liver was lowest for compositions including Compounds 58, 59, 137, and 141. Flux in the spleen was highest for compositions including Compounds 4, 7, 33, 34, 48, 53, 108, 129, 130, and 148, and lowest for compositions including Compounds 9, 59, 124, and 141.

Data set [1] in a line: Encapsulation efficiency of RNA in nanoparticle compositions (RIBOGREEN assay). It counts as physicochemical. As to conditions: Table 1A; lipid:DSPC:cholesterol:PEG-DMG 50:10:38.5:1.5 mol %. Here is the method: For nanoparticle compositions including an RNA, a QUANT-IT™ RIBOGREEN® RNA assay (Invitrogen Corporation Carlsbad, Calif.) can be used to evaluate the encapsulation of an RNA by the nanoparticle composition. The samples are diluted to a concentration of approximately 5 μg/mL, in a TE buffer solution (10 mM Tris-HCl, 1 mM EDTA, pH 7.5). 50 μL of the diluted samples are transferred to a polystyrene 96 well plate and either 50 μL of TE buffer or 50 μL of a 2% Triton X-100 solution is added to the wells. The plate is incubated at a temperature of 37° C. for 15 minutes. The RIBOGREEN® reagent is diluted 1:100 in TE buffer, and 100 μL of this solution is added to each well. The fluorescence intensity can be measured using a fluorescence plate reader (Wallac Victor 1420 Multilabel Counter; Perkin Elmer, Waltham, Mass.) at an excitation wavelength of, for example, about 480 nm and an emission wavelength of, for example, about 520 nm. The fluorescence values of the reagent blank are subtracted from that of each of the samples and the percentage of free RNA is determined by dividing the fluorescence intensity of the intact sample (without addition of Triton X-100) by the fluorescence value of the disrupted sample (caused by the addition of Triton X-100).
(§1) Initial studies were performed to compare the delivery efficiency of nanoparticle compositions including various compounds according to Formula (I), (IA), (IB), (II), (IIa), (IIb), (IIc), (IId), (IIe), (IIf), (IIg), or (III). The cationic lipid MC3 is a current standard in the art. Accordingly, the standard MC3 formulation including about 50 mol % MC3, about 10 mol % DSPC, about 38.5 mol % cholesterol, and about 1.5 mol % PEG-DMG was used as a basis for this study. Nanoparticle compositions including DSPC as a phospholipid, cholesterol as a structural lipid, PEG-DMG as a PEG lipid, an RNA, and a compound according to Formula (I), (IA), (IB), (II), (IIa), (IIb), (IIc), (IId), (IIe), (IIf), (IIg), or (III) selected from Compounds 1-159, 168-170, and 173-175 were prepared according to or via methods similar to those described in Examples 1 and 2. The ratios of the lipids were 50:10:38.5:1.5 mol % for the lipid according to Formula (I), (IA), (IB), (II), (IIa), (IIb), (IIc), (IId), (IIe), (IIf), (IIg), or (III):DSPC:cholesterol:PEG-DMG. The RNA used was an mRNA encoding luciferase (Luc) or hEPO, wherein each uridine was replaced N1-methyl pseudouridine. Tables 1A-1E summarize the content and characteristics of the formulations.

Data set [2] in a line: Particle size and polydispersity index of nanoparticle compositions (Zetasizer Nano ZS). Type of data set: physicochemical. Here is the method: A Zetasizer Nano ZS (Malvern Instruments Ltd, Malvern, Worcestershire, UK) can be used to determine the particle size, the polydispersity index (PDI) and the zeta potential of the nanoparticle compositions in 1×PBS in determining particle size and 15 mM PBS in determining zeta potential.
as §1

Where [3] appears, read: Table 1A, lipid:DSPC:cholesterol:PEG-DMG 50:10:38.5:1.5 mol %.
Setting [4] is: Table 1C, compositions for subcutaneous administration.

Regarding `CCCCCCCCCOC(=O)CCCCCCCN(CCO)CCCCCCCC(=O)OC(CC)CCCCCCCC` (centres unmarked) [Compound 35, nonyl 8-((2-hydroxyethyl)(8-oxo-8-(undecan-3-yloxy)octyl)amino) octanoate], in the data set on modified luciferase, the “Total Flux, Liver” value was found to be 1.63E+08; the “Total Flux, Lung” value is listed as 2.06E+06; the “Total Flux, Spleen” value amounted to 1.23E+08. In addition, in data set [1], the EE is given as 90.82%.
`CCCCCCCCC(CCCCCCCC)OC(=O)CCCCCCCN(CCO)CCCC(=O)OCC1CC1CCCCCC` (centres unmarked) [Compound 55, heptadecan-9-yl 8-((4-((2-hexylcyclopropyl)methoxy)-4-oxobutyl)(2-hydroxyethyl)amino)octanoate]: the Size in data set [2] (setting [3]) was 91.6 nm. Besides, in the data set with modified luciferase, the “Total Flux, Liver” value was determined as 1.92E+09; the “Total Flux, Lung” value stood at 7.02E+06; the “Total Flux, Spleen” value is listed as 2.63E+07.
Take `CCCCCCCCC(CCCCCCCC)OC(=O)CCCCCCCN(CCO)CCCCCCCC(=O)OC(CCCCCCCC)C1CC1` (centres unmarked) [Compound 65, 1-Cyclopropylnonyl 8-((8-(heptadecan-9-yloxy)-8-oxooctyl)(2-hydroxyethyl)amino)octanoate]: in data set [2] (setting [3]), the Size worked out at 63.9 nm. In the data set with modified luciferase, the “Total Flux, Liver” value stood at 9.56E+09; the “Total Flux, Lung” value is given as 3.79E+07; the “Total Flux, Spleen” value was found to be 6.57E+07.
The like results for `CCCCCCCCC(CCCCCCCC)OC(=O)CCCCCCCN(CCO)CCCC(=O)OC1CCC(CCCCC)CC1` (centres unmarked) [Compound 67, Heptadecan-9-yl 8-((2-hydroxyethyl)(4-oxo-4-((4-pentylcyclohexyl)oxy)butyl)amino)octanoate] were, in that order, 77 nm, 3.60E+09, 1.68E+07 and 2.55E+07.
The like results for `CCCCCCCCC(CCCCCCCC)OC(=O)CCCCCCCN(CCO)CCCCCC(=O)OC1CCC(CCCCC)CC1` (centres unmarked) [Compound 68, Heptadecan-9-yl 8-((2-hydroxyethyl)(6-oxo-6-((4-pentylcyclohexyl)oxy)hexyl)amino)octanoate] were, in that order, 76.8 nm, 8.42E+09, 3.98E+07 and 6.69E+07.
The like results for `CCCCCCCCC(C)OC(=O)CCCN(CCO)CCCCCCCC(=O)OC(CCCCCCCC)CCCCCCCC` (centres unmarked) [Compound 70, Heptadecan-9-yl 8-((4-(decan-2-yloxy)-4-oxobutyl)(2-hydroxyethyl)amino)octanoate] were, in that order, 73.7 nm, 8.55E+08, 6.32E+06 and 2.06E+06.
As for `CCCCCCCCC(CC)OC(=O)CCCN(CCO)CCCCCCCC(=O)OC(CCCCCCCC)CCCCCCCC` (centres unmarked) [Compound 72, Heptadecan-9-yl 8-((2-hydroxyethyl)(4-oxo-4-(undecan-3-yloxy)butyl)amino)octanoate], in data set [2] (setting [3]), the Size worked out at 76.8 nm. In data set [2] (setting [4]), this molecule yielded a Size of 77.3 nm. In the data set on modified luciferase, the “Total Flux, Liver” value came to 7.97E+08; the “Total Flux, Lung” value is 1.05E+07; the “Total Flux, Spleen” value came to 6.40E+06.
In data set [2] (setting [3]), `CCCCCCCCC(CCC)OC(=O)CCCN(CCO)CCCCCCCC(=O)OC(CCCCCCCC)CCCCCCCC` (centres unmarked) [Compound 74, Heptadecan-9-yl 8-((4-(dodecan-4-yloxy)-4-oxobutyl)(2-hydroxyethyl)amino)octanoate] gave a Size of 65.6 nm. Moreover, in the data set with modified luciferase, the “Total Flux, Liver” value stood at 1.99E+09; the “Total Flux, Lung” value is reported as 6.93E+06; the “Total Flux, Spleen” value worked out at 2.26E+07.
`CCCCCCCCC(CC)OC(=O)CCCCCN(CCO)CCCCCCCC(=O)OC(CCCCCCCC)CCCCCCCC` (centres unmarked) [Compound 75, Heptadecan-9-yl 8-((2-hydroxyethyl)(6-oxo-6-(undecan-3-yloxy)hexyl)amino)octanoate] came in with a Size in data set [2] (setting [3]) of 92.1 nm. In data set [2] (setting [4]), the Size is 88.6 nm. Besides, in the data set on modified luciferase, the “Total Flux, Liver” value is reported as 1.45E+09; the “Total Flux, Lung” value came out at 3.92E+06; the “Total Flux, Spleen” value is listed as 5.66E+06.
On to `CCCCCCCCCOC(=O)CCCCCCCN(CCCCCCCC(=O)OC(CCCCCCCC)CCCCCCCC)CCCn1ccc(N)nc1=O` [Compound 115, Heptadecan-9-yl 8-((3-(4-amino-2-oxopyrimidin-1(2H)-yl)propyl)(8-(nonyloxy)-8-oxooctyl)amino)octanoate], for which the Size in data set [2] (setting [3]) is 64.5 nm.
Same read-out and setting: the value for `CCCCCCCCCOC(=O)CCCCCCCN(CCCCCCCC(=O)OC(CCCCCCCC)CCCCCCCC)CCCn1cnc2c(N)ncnc21` [Compound 116, Heptadecan-9-yl 8-((3-(6-amino-9H-purin-9-yl)propyl)(8-(nonyloxy)-8-oxooctyl)amino)octanoate] was 63.3 nm.
The molecule `CCCCCCCCCOC(=O)CCCCCCCN(CCO)CCCCCCCC(=O)Oc1ccc(CCCCC)c(CCCCC)c1` [Compound 118, 3,4-Dipentylphenyl 8-((2-hydroxyethyl)(8-(nonyloxy)-8-oxooctyl)amino)octanoate] returned a Size in data set [2] (setting [3]) of 72.1 nm. In the data set on modified luciferase, the “Total Flux, Liver” value was found to be 1.72E+08; the “Total Flux, Lung” value turned out to be 1.98E+06; the “Total Flux, Spleen” value amounted to 2.49E+07.
`CCCCCCCCCOC(=O)CCCCCCCN(CCO)CCCCCCCC(=O)Oc1ccc(CCCCC)cc1` [Compound 119, Nonyl 8-((2-hydroxyethyl)(8-oxo-8-(4-pentylphenoxy)octyl)amino)octanoate] yielded a Size in data set [2] (setting [3]) of 60.8 nm.
With `CCCCCCCCC(CCCCCCCC)OC(=O)CCCCCCCN(C)CCCCCCCC(=O)OC(CCCCCCCC)CCCCCCCC` [Compound 124, Di(heptadecan-9-yl) 8,8′-(methylazanediyl)dioctanoate], the Size in data set [2] (setting [3]) is recorded as 61.3 nm. Moreover, in the data set on modified luciferase, the “Total Flux, Liver” value is given as 8.46E+06; the “Total Flux, Lung” value is 5.67E+04; the “Total Flux, Spleen” value was determined as 8.06E+04.
Take `CCCCCCCCCOC(=O)CCCN(C)CCCCCCCC(=O)OC(CCCCCCCC)CCCCCCCC` [Compound 126, Heptadecan-9-yl 8-(methyl(4-(nonyloxy)-4-oxobutyl)amino)octanoate]: in data set [2] (setting [3]), the Size worked out at 77.4 nm. Moreover, in the data set with modified luciferase, the “Total Flux, Liver” value turned out to be 7.41E+08; the “Total Flux, Lung” value turned out to be 2.68E+06; the “Total Flux, Spleen” value is 1.87E+07.
The like results for `CCCCCCCCC(C)OC(=O)CCCCCCCN(CCO)CCCCCCCC(=O)N(CCCCCCCC)CCCCCCCC` (centres unmarked) [Compound 130, Decan-2-yl 8-((8-(dioctylamino)-8-oxooctyl)(2-hydroxyethyl)amino)octanoate] were, in that order, 107.1 nm, 8.17E+09, 5.88E+07 and 1.35E+09.
`CCCCCCCCCOC(=O)CCCCCCCN(CCCCCCCC(=O)OC(CCCCCCCC)CCCCCCCC)CCCN1C(=O)CNC1=O` [Compound 174, Heptadecan-9-yl 8-((3-(2,5-dioxoimidazolidin-1-yl)propyl)(8-(nonyloxy)-8-oxooctyl)amino)octanoate] yielded a Size in data set [2] (setting [3]) of 84.4 nm.
`CCCCCCCCCOC(=O)CCCCCCCN(CCCCCCCC(=O)OC(CCCCCCCC)CCCCCCCC)CCCNC(=N)N` [Compound 207, Heptadecan-9-yl 8-((3-guanidinopropyl)(8-(nonyloxy)-8-oxooctyl)amino)octanoate] showed a Size in data set [2] (Table 1D, compositions for subcutaneous administration, # formulated with hEPO mRNA) of 81.4 nm.
